Data set [1] relates to HCV replicon RNA (GenBank Accession No. AJ242654). Description: HCV Replicon Assay (replicon RNA reduction and/or Fluc reporter signal). It is filed as cell-based, Hepatitis C virus. As to conditions: Hepatitis C virus, 72 h, replicon-containing cells cultured with test compound for up to 3 days. The procedure, abridged: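 IC50 values mostly reflect the drop in replicon RNA, though Fluc reporter signal may also be used. Compound incubated with cells carrying the bicistronic replicon for as long as 3 days; interferon served as positive control.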
(In general: Replicon systems follow genome replication, usually without infectious particles.)

A word on the IC50: it is the concentration needed to halve the response being measured. Low values mean greater potency, high ones weaker potency. As usually defined, the melting point is the temperature, or range, at which the solid turns liquid.

`COc1cnc2c(c1)c(C#N)c(-c1ncc(S(=O)(=O)NC3(C)CC3)cn1)n2C1CCC1` [Cpd 313, 2-(3-cyano-1-cyclobutyl-5-methoxy-1H-pyrrolo[2,3-b]pyridin-2-yl)-N-(1-methylcyclopropyl)pyrimidine-5-sulfonamide] returned a melting point of 209 to 212 °C. In addition, the IC50 in data set [1] is less than 0.5 µM.

In turn, `C[C@H](NS(=O)(=O)c1ccc(-c2c(C#N)c3cc(C(F)(F)F)cnc3n2-c2cnccn2)nc1)C(F)(F)F` [Cpd 316, 6-[3-cyano-1-(pyrazin-2-yl)-5-(trifluoromethyl)-1H-pyrrolo[2,3-b]pyridin-2-yl]-N-[(2S)-1,1,1-trifluoropropan-2-yl]pyridine-3-sulfonamide] came in with a melting point of 226 to 228 °C. This molecule also gave an IC50 in data set [1] of less than 0.5 µM.

Molecule `C[C@H](NS(=O)(=O)c1ccc(-c2c(C#N)c3cc(C(F)(F)F)cnc3n2-c2ccccn2)nc1)C(F)(F)F` [Cpd 317, 6-[3-cyano-1-(pyridin-2-yl)-5-(trifluoromethyl)-1H-pyrrolo[2,3-b]pyridin-2-yl]-N-[(2S)-1,1,1-trifluoropropan-2-yl]pyridine-3-sulfonamide] came in with a melting point of 110 to 112 °C. Besides, the IC50 in data set [1] is less than 0.5 µM.

In turn, `C[C@H](NS(=O)(=O)c1ccc(-c2c(C#N)c3cc(C(F)(F)F)cnc3n2-c2ccccc2)nc1)C(F)(F)F` [Cpd 318, 6-[3-cyano-1-phenyl-5-(trifluoromethyl)-1H-pyrrolo[2,3-b]pyridin-2-yl]-N-[(2S)-1,1,1-trifluoropropan-2-yl]pyridine-3-sulfonamide] had a melting point of 186 to 188 °C. In data set [1], this molecule yielded a half-inhibitory concentration (IC50) of less than 0.5 µM.

As to `C[C@H](NS(=O)(=O)c1ccc(-c2c(C#N)c3cc(F)cnc3n2-c2ncccn2)nc1)C(F)(F)F` [Cpd 320, 6-[3-cyano-5-fluoro-1-(pyrimidin-2-yl)-1H-pyrrolo[2,3-b]pyridin-2-yl]-N-[(2S)-1,1,1-trifluoropropan-2-yl]pyridine-3-sulfonamide], the melting point was in the range of 171 to 173 °C. Moreover, the IC50 in data set [1] is less than 0.5 µM.

Turning to `C[C@H](NS(=O)(=O)c1ccc(-c2c(C#N)c3cc(F)cnc3n2-c2cnccn2)nc1)C(F)(F)F` [Cpd 321, 6-[3-cyano-5-fluoro-1-(pyrazin-2-yl)-1H-pyrrolo[2,3-b]pyridin-2-yl]-N-[(2S)-1,1,1-trifluoropropan-2-yl]pyridine-3-sulfonamide], the melting point lay within 212 to 214 °C. In addition, the half-inhibitory concentration (IC50) in data set [1] is less than 0.5 µM.

As for `C[C@H](NS(=O)(=O)c1ccc(-c2c(C#N)c3cc(F)cnc3n2-c2ccccn2)nc1)C(F)(F)F` [Cpd 322, 6-[3-cyano-5-fluoro-1-(pyridin-2-yl)-1H-pyrrolo[2,3-b]pyridin-2-yl]-N-[(2S)-1,1,1-trifluoropropan-2-yl]pyridine-3-sulfonamide], the melting point is 229 to 231 °C. In data set [1], the IC50 was less than 0.5 µM.

`CSc1cnc2c(c1)c(C#N)c(-c1ccc(S(=O)(=O)N[C@@H](C)C(F)(F)F)cn1)n2C1CCC1` [Cpd 323, 6-[3-cyano-1-cyclobutyl-5-(methylsulfanyl)-1H-pyrrolo[2,3-b]pyridin-2-yl]-N-[(2S)-1,1,1-trifluoropropan-2-yl]pyridine-3-sulfonamide] showed a melting point of 154 to 158 °C. The IC50 in data set [1] is less than 0.5 µM.

`C[C@H](NS(=O)(=O)c1ccc(-c2c(C(N)=O)c3cc(Cl)cnc3n2C2CCCC2)nc1)C(F)(F)F` [Cpd 324, 5-chloro-1-cyclopentyl-2-(5-{[(2S)-1,1,1-trifluoropropan-2-yl]sulfamoyl}pyridin-2-yl)-1H-pyrrolo[2,3-b]pyridine-3-carboxamide] came in with a melting point of 289 to 295 °C. Further, the IC50 in data set [1] was less than 0.5 µM.

In the case of `NC(=O)c1c(-c2ccc(S(=O)(=O)NC3(C(F)(F)F)CC3)cn2)n(C2CCC2)c2ncc(Cl)cc12` [Cpd 325, 5-chloro-1-cyclobutyl-2-(5-{[1-(trifluoromethyl)cyclopropyl]sulfamoyl}pyridin-2-yl)-1H-pyrrolo[2,3-b]pyridine-3-carboxamide], the melting point was in the range of 238 to 240 °C. For the same molecule, the IC50 in data set [1] was less than 0.5 µM.

With `CC(C)(NS(=O)(=O)c1ccc(-c2c(C(N)=O)c3cc(Cl)cnc3n2C2CCC2)nc1)C(F)(F)F` [Cpd 326, 5-chloro-1-cyclobutyl-2-{5-[(1,1,1-trifluoro-2-methylpropan-2-yl)sulfamoyl]pyridin-2-yl}-1H-pyrrolo[2,3-b]pyridine-3-carboxamide], the melting point lay within 239 to 241 °C. For the same molecule, in data set [1], the IC50 was less than 0.5 µM.

Molecule `CC(C)(C)NS(=O)(=O)c1ccc(-c2c(C(N)=O)c3cc(Cl)cnc3n2C2CCC2)nc1` [Cpd 327, 2-[5-(tert-butylsulfamoyl)pyridin-2-yl]-5-chloro-1-cyclobutyl-1H-pyrrolo[2,3-b]pyridine-3-carboxamide] came in with a melting point of 240 to 241 °C. Besides, in data set [1], the IC50 is less than 0.5 µM.

The molecule `NC(=O)c1c(-c2ccc(S(=O)(=O)NC3(C(F)(F)F)CC3)cc2)n(C2CCC2)c2ncc(Cl)cc12` [Cpd 328, 5-chloro-1-cyclobutyl-2-(4-{[1-(trifluoromethyl)cyclopropyl]sulfamoyl}phenyl)-1H-pyrrolo[2,3-b]pyridine-3-carboxamide] yielded a melting point of 271 to 272 °C. In data set [1], this molecule yielded an IC50 of less than 0.5 µM.

As to `CC(C)(NS(=O)(=O)c1ccc(-c2c(C(N)=O)c3cc(Cl)cnc3n2C2CCC2)cc1)C(F)(F)F` [Cpd 329, 5-chloro-1-cyclobutyl-2-{4-[(1,1,1-trifluoro-2-methylpropan-2-yl)sulfamoyl]phenyl}-1H-pyrrolo[2,3-b]pyridine-3-carboxamide], the melting point lay within 263 to 265 °C. For the same molecule, the IC50 in data set [1] is less than 0.5 µM.

`COc1ccc(-n2c(-c3ccc(S(=O)(=O)N[C@@H](C)C(F)(F)F)cn3)c(C#N)c3cc(C(F)(F)F)cnc32)nc1` [Cpd 332, 6-[3-cyano-1-(5-methoxypyridin-2-yl)-5-(trifluoromethyl)-1H-pyrrolo[2,3-b]pyridin-2-yl]-N-[(2S)-1,1,1-trifluoropropan-2-yl]pyridine-3-sulfonamide] showed a melting point of 203 to 206 °C. The same molecule registered an IC50 in data set [1] of 0.5 to 2 µM.

`COc1ccnc(-n2c(-c3ccc(S(=O)(=O)N[C@@H](C)C(F)(F)F)cn3)c(C#N)c3cc(C(F)(F)F)cnc32)n1` [Cpd 333, 6-[3-cyano-1-(4-methoxypyrimidin-2-yl)-5-(trifluoromethyl)-1H-pyrrolo[2,3-b]pyridin-2-yl]-N-[(2S)-1,1,1-trifluoropropan-2-yl]pyridine-3-sulfonamide] showed a melting point of 209 to 211 °C. Moreover, the IC50 in data set [1] lay in the range of 2 to 5 µM.

As to `CC(C)(C)NS(=O)(=O)c1ccc(-c2c(C#N)c3cc(C(F)(F)F)cnc3n2-c2ncccn2)cc1` [Cpd 334, N-tert-butyl-4-[3-cyano-1-(pyrimidin-2-yl)-5-(trifluoromethyl)-1H-pyrrolo[2,3-b]pyridin-2-yl]benzenesulfonamide], the melting point lay within 228 to 230 °C. The molecule further returned an IC50 in data set [1] of 2 to 5 µM.

`CC(C)(C)NS(=O)(=O)c1ccc(-c2c(C#N)c3cc(C(F)(F)F)cnc3n2-c2cnccn2)cc1` [Cpd 335, N-tert-butyl-4-[3-cyano-1-(pyrazin-2-yl)-5-(trifluoromethyl)-1H-pyrrolo[2,3-b]pyridin-2-yl]benzenesulfonamide] came in with a melting point of 190 to 192 °C. In data set [1], this molecule returned an IC50 of less than 0.5 µM.
